Measurements as given in US20240245677A1, “SELECTED COMPOUNDS FOR TARGETED DEGRADATION OF BRD9” (C4 THERAPEUTICS, INC., priority 2021, published 2024).
Where two headings read alike, the source gives them in different places.

Target: T1, BRD9 (Homo sapiens, UniProt Q9H8M2)
T1 sequence (Q9H8M2 1-597): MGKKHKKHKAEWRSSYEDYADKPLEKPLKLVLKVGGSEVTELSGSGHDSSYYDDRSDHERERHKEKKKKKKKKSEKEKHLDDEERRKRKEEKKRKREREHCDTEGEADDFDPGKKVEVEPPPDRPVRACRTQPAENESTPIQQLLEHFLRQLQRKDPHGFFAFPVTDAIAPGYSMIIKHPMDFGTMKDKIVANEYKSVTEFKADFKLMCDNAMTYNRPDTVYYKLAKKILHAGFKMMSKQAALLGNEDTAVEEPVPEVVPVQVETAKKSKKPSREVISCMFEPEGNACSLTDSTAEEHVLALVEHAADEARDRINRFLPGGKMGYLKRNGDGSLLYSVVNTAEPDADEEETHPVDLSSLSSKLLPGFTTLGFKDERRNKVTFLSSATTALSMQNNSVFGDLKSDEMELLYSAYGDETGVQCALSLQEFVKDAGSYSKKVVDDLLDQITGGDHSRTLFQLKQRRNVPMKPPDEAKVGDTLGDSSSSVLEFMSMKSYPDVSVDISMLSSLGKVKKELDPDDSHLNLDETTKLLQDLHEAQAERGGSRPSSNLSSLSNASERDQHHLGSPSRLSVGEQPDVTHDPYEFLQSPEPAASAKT
Assay: BRD9 HiBiT degradation assay in 293T.166 (HEK293T.166) cells
Format: cell-based
Design: endogenously expressing BRD9 with HiBiT fusion tag via CRISPR; host or cells: HEK293T.166 (293T.166, BRD9-HiBiT HEK293, LgBiT by lentivirus)
Procedure: Selected compounds were tested in a BRD9 degradation assay using the HiBit Method.
Dulbecco's modified Eagle medium (DMEM) without phenol red and fetal bovine serum (FBS) were purchased from Gibco (Grand Island, NY, USA). Nano-Glo® HiBiT Lytic Assay System was purchased from Promega (Madison, WI, USA). 293T.166 (BRD9-HiBiT) cell line, endogenously expressing BRD9 with HiBiT fusion tag via CRISPR and ectopically expressing LgBiT tag, was purchased from Promega (Madison, WI, USA). 293T.167 (BRD7-HiBiT) cell line, endogenously expressing BRD7 with HiBiT fusion tag via CRISPR and ectopically expressing LgBiT tag, was purchased from Promega (Madison, WI, USA). 293T.92 (BRD4-HiBiT) cell line, endogenously expressing BRD4 with HiBiT fusion tag via CRISPR and ectopically expressing LgBiT tag, was generated in-house. Cell culture flasks and 384-well microplates were acquired from VWR (Radnor, PA, USA).
BRD9 degradation was determined based on quantification of luminescent signal using Nano-Glo® HiBiT Lytic Assay kit. Test compounds were added to the 384-well plate from a top concentration of 10 μM with 11 points, half log titration in duplicates. 293T.166 cells were added into 384-well plates at a cell density of 10,000 cells per well. The plates were kept at 37° C. with 5% CO2 for 2 hours. BRD7 and BRD4 degradation was similarly determined with 293T.167 cells and 293T.92 cells, respectively. The cells treated in the absence of the test compound were the negative control and the cells without Nano-Glo® HiBiT Lytic reagent were the positive control. After 2-hour incubation, Nano-Glo® HiBiT Lytic Assay reagents were added to the cells. Luminescence was acquired on EnVision® Multilabel Reader (Catalog No. 2104-0010, Perkin Elmer Inc., Dumfries, VA, USA).
This assay evaluates the degradation of BRD9 induced by treatment with Compound 1 or Compound 2 as measured by luminescence using Nano-Glo® HiBiT Lytic Assay System in HEK293 cells CRISPR-edited to endogenously express HiBiT tagged BRD9 and exogenously express LgBiT protein.
Nano-Glo® HiBiT Lytic Assay System was purchased from Promega (Catalog No. N3050, Madison, WI, USA). BRD9-HiBiT HEK293 cells were purchased from Promega (Catalog No. CS302348, Madison, WI, USA). The cells were maintained in Dulbecco's modified Eagle medium (DMEM) without phenol red (Catalog No. 12430112, ThermoFisher Scientific, Waltham, MA, USA) supplemented with 10% fetal bovine serum (FBS) (Catalog No. 16000-044, Gibco, Grand Island, NY, USA) at 37° C. in an atmosphere of 5% CO2 in air. The HiBiT polypeptide tag was introduced into the C-terminus of the endogenous BRD9 locus by CRISPR-Cas9 and the LgBiT protein was introduced via Lentiviral infection to produce the modified HEK293T.166 cell line. The HiBiT polypeptide and LgBiT protein allow reconstitution of NanoBiT enzyme in the cells. The Nano-Glo® HiBiT Lytic Substrate was then added and activated by the NanoBiT enzyme following cell lysis to produce a luminescent signal that is directly proportional to the amount of HiBiT-tagged BRD9.
The HEK293T.166 cells were routinely sub-cultured to maintain cell density between 30-80% confluence, not to exceed 20 passages. Cells were washed with PBS pH 7.4 (Catalog No. 10010049, ThermoFisher Scientific, Waltham, MA, USA), trypsinized for 5 minutes at 37° C., and resuspended in fresh growth media without phenol red. An aliquot was diluted 2× with Trypan Blue solution 0.4% (Catalog No. 15250061, ThermoFisher Scientific, Waltham, MA, USA) and cell count determined. Cell concentration was adjusted with growth media without phenol red to 3.3×10^5 cells/mL.
Compound 1 or Compound 2 was prepared by dissolving neat compounds in DMSO (Catalog No. D8418, Sigma-Aldrich, Inc., St. Louis, MO, USA) to generate 10 mM stock solution and stored at −20° C. […]

`COc1cc(-c2cn(C)c(=O)c(C)c2C)cc(OC)c1CN1CC[C@H](N2CCN(c3ccc(N[C@H]4CCC(=O)NC4=O)cc3F)CC2)C(F)(F)C1` [Compound 1, (S)-3-((4-(4-((S)-1-(2,6-dimethoxy-4-(1,4,5-trimethyl-6-oxo-1,6-dihydropyridin-3-yl)benzyl)-3,3-difluoropiperidin-4-yl)piperazin-1-yl)-3-fluorophenyl)amino)-piperidine-2,6-dione] was tested, and the “% BRD9 Remaining Relative to Vehicle Control at 2 hr, Mean” value (0.010 nM) was 92.3%, the “% BRD9 Remaining Relative to Vehicle Control at 2 hr, Mean” value (0.032 nM) was 96.4% and the “% BRD9 Remaining Relative to Vehicle Control at 2 hr, Mean” value (0.100 nM) was 91.6%. The “% BRD9 Remaining Relative to Vehicle Control at 2 hr, Mean” value (0.315 nM) was 86.4%, the “% BRD9 Remaining Relative to Vehicle Control at 2 hr, Mean” value (0.997 nM) was 76.7% and the “% BRD9 Remaining Relative to Vehicle Control at 2 hr, Mean” value (3.15 nM) was 51.6%. The “% BRD9 Remaining Relative to Vehicle Control at 2 hr, Mean” value (10.0 nM) was 21.7%, the “% BRD9 Remaining Relative to Vehicle Control at 2 hr, Mean” value (31.7 nM) was 7.9% and the “% BRD9 Remaining Relative to Vehicle Control at 2 hr, Mean” value (100 nM) was 5.0%. For the same compound, the “% BRD9 Remaining Relative to Vehicle Control at 2 hr, Mean” value (316 nM) was 5.7%, the “% BRD9 Remaining Relative to Vehicle Control at 2 hr, Mean” value (999 nM) was 4.8% and the DC50 (293T.166 cells, 2.0 hours, read-out: HiBiT-Degradation 293T.166 BRD9 2.0 hours (DC50)) was less than 100 nM. The Emax (BRD9-HiBiT, 293T.166 cells, 2 hours, read-out: Mean Emax (%) ± SD) was 4.14 ± 1.15%, the Dmax (HEK293T.166 cells, 2-hour treatment, read-out: maximal degradation of BRD9) was greater than 95% and the DC50 (summary statement, read-out: DC50 against BRD9) was 2 to 75 nM.
